According to patent US20240400560A1, “BICYCLIC HETEROCYCLIC DERIVATIVE HAVING VIRAL GROWTH INHIBITORY ACTIVITY AND PHARMACEUTICAL COMPOSITION CONTAINING SAME” (Shionogi & Co., Ltd., priority 2021, published 2024):
Where two headings read alike, the source gives them in different places.

Legend:
SARS-CoV-2 = assay: Inhibitory activity of cytopathic effect (CPE) in HEK293T/ACE2-TMPRSS2 cells; format: cell-based; settings: Severe acute respiratory syndrome coronavirus 2, HEK-293T, 72 h, HEK293T/ACE2-TMPRSS2 cells
SARS-CoV-2 3CL protease = SARS-CoV-2 3CL protease (Severe acute respiratory syndrome coronavirus 2, UniProt P0DTD1); assay: Inhibitory activity test against SARS-CoV-2 3CL proteases; format: biochemical; settings: read-out: IC50 (50% SARS-CoV-2 3CL protease inhibitory concentration)
[1] = cultured 3 days, CellTiter-Glo 2.0 luminescence, read-out: EC50 (50% SARS-CoV-2 infected cell death inhibitory concentration)
[2] = 50% SARS-CoV-2 infected cell death inhibitory concentration, CellTiter-Glo 2.0 after 3 days culture, read-out: EC50

Structure (SMILES) | EC50 (SARS-CoV-2; [1]) [nM] | IC50 (SARS-CoV-2 3CL protease) [nM] | EC50 (SARS-CoV-2; [2]) [nM]
COc1nc(N2CCC(O)(CF)C2)cc2c1c(=O)n(-c1cnc3cc(F)ccn13)c(=O)n2-c1ccc(F)c(Cl)c1 (centres unmarked) [Compound I-1037] | < 100 | < 100 | 
COc1nc(N2CC[C@@H](C#N)C2)cc2c1c(=O)n(-c1cncc(C#N)c1)c(=O)n2-c1ccc(F)c(Cl)c1 [Compound I-0939] | < 100 | < 100 | 
COc1nc(N2CCC(F)(F)C2)cc2c1c(=O)n(-c1cnc3cc(F)ccn13)c(=O)n2-c1ccc(F)c(C(F)F)c1 [Compound I-1015] | < 100 | < 100 | 
COc1nc2c(=O)n(-c3cnc4cc(F)ccn34)c(=O)n(Cc3cc(Cl)c(F)cc3C)c2cc1-c1cc(C(C)(C)O)ccc1Cl [Compound I-0843] |  | 7.4 | 72.3
COc1nc(NC2CC2)cc2c1c(=O)n(-c1cnc3cc(F)ccn13)c(=O)n2-c1ccc(F)c(Cl)c1 [Compound I-1029] | < 100 | < 100 | 
COc1nc(N2CC[C@@H](F)C2)cc2c1c(=O)n(Cc1ncn(C)n1)c(=O)n2-c1cc(F)c(Cl)c(Cl)c1 [Compound I-0802] |  | 24 | 11.2
COc1nc(N2CCC(F)(F)C2)cc2c1c(=O)n(-c1cncc(C#N)c1)c(=O)n2-c1ccc(F)c(F)c1 [Compound I-1057] | < 100 | < 100 | 
COc1nc(N2C[C@@H]3C[C@H]2CO3)cc2c1c(=O)n(-c1cncc(C#N)c1)c(=O)n2-c1ccc(F)c(Cl)c1 [Compound I-0940] |  | 1.7 | 5.66
[2H]C([2H])([2H])O[C@@H]1CCN(c2cc3c(c(OC)n2)c(=O)n(-c2cncc(C#N)c2)c(=O)n3-c2ccc(F)c(Cl)c2)C1 [Compound I-0948] | < 100 | < 100 | 
C=Cc1cc2c(c(OC)n1)c(=O)n(-c1cnc3cc(F)ccn13)c(=O)n2-c1ccc(F)c(F)c1 [Compound I-1047] | 100 to 1000 | < 100 | 
COc1nc(N2CC[C@@H](OC)C2)cc2c1c(=O)n(-c1cnc3cc(F)ccn13)c(=O)n2Cc1cc(F)c(F)c(F)c1 [Compound I-0731] | < 100 | < 100 | 
Cn1cnc(Cn2c(=O)c3c4c(c(-c5cc(C#N)ccc5Cl)cc3n(Cc3cc(F)c(F)c(F)c3)c2=O)CCO4)n1 [Compound I-0414] |  | 1.5 | 
Cn1cnc(Cn2c(=O)c3c4occc4c(-c4cc(C#N)ccc4Cl)cc3n(Cc3cc(F)c(F)c(F)c3)c2=O)n1 [Compound I-0473] |  | 4.1 | 
Cn1cnc(Cn2c(=O)c3nnc(N4CC[C@@H](F)C4)cc3n(Cc3cc(F)c(F)c(F)c3)c2=O)n1 [Compound I-0935] |  | 1000 to 10000 | 
COc1nc(N2CC[C@@H](OC)C2)cc2c1c(=O)n(Cc1ncn(C)n1)c(=O)n2Cc1cc(F)c(F)c(F)c1 [Compound I-0449] |  | 37 | 
Cn1cnc(Cn2c(=O)c3c(F)c(Cl)c(-c4cc5c(cc4Cl)NC(=O)C5)cc3n(Cc3cc(F)c(F)c(Cl)c3)c2=O)n1 [Compound I-0492] |  | < 100 | 
O=c1[nH]cccc1Cn1c(=O)c2ccc(N3C[C@@H]4CN[C@@H](C4)C3)cc2n(Cc2cc(F)c(F)c(F)c2)c1=O [Compound I-0378] |  | < 100 | 
COc1nc2c(=O)n(Cc3ncn(C)n3)c(=O)n(Cc3cc(F)c(F)c(F)c3)c2cc1-c1cc(C#N)ccc1Cl [Compound I-0516] |  | 15 | 
COc1nc(-c2cc(C#N)ccc2Cl)cc2c1c(=O)n(Cc1ncn(C)n1)c(=O)n2Cc1cc(F)c(F)c(Cl)c1 [Compound I-0174] |  | 16 | 
Cc1cncc(-n2c(=O)c3c(Cl)cc(-c4cc(CO)ccc4Cl)cc3n(Cc3ccc(F)c(C#N)c3)c2=O)c1 [Compound I-0014] |  | 30 | 
N#Cc1ccc(Cl)c(-c2cc3c(c(=O)[nH]2)c(=O)n(-c2cncc(Cl)c2)c(=O)n3Cc2cc(F)c(F)c(F)c2)c1 [Compound I-0431] |  | 11 | 
COc1cc(-c2cc3[nH]c(=O)[nH]c3cc2Cl)cc2c1c(=O)n(Cc1ncn(C)n1)c(=O)n2Cc1cc(F)c(F)c(F)c1 [Compound I-0265] |  | < 100 | 
Cn1cnc(Cn2c(=O)c3c(=O)[nH]c(-c4cc(C#N)ccc4Cl)cc3n(Cc3cc(F)c(F)c(F)c3)c2=O)n1 [Compound I-0177] |  | 34 | 
COc1cc(-c2cc(C(=O)N3CCOCC3)ccc2Cl)cc2c1c(=O)n(-c1cncc(C)c1)c(=O)n2Cc1ccc(F)c(C#N)c1 [Compound I-0209] |  | < 100 | 
CNC(=O)c1ccc(Cl)c(-c2cc(OC)c3c(=O)n(Cc4ncn(C)n4)c(=O)n(Cc4cc(F)c(F)c(F)c4)c3c2)c1 [Compound I-0213] |  | 33 | 
Cn1cnc(Cn2c(=O)c3c(F)cc(-c4cc(C#N)ccc4Cl)cc3n(Cc3cc(F)c(F)c(Cl)c3)c2=O)n1 [Compound I-0281] |  | < 100 | 
NC(=O)c1ccc(Cl)c(-c2ccc3c(=O)n(Cc4ccc[nH]c4=O)c(=O)n(Cc4cc(F)c(F)c(F)c4)c3c2)c1 [Compound I-0296] |  | < 100 | 
